Marks after values point to notes of the source that are not given here.
Key:
Assay type in all cases: physicochemical
[1] = Stability of vitamins in 35% glucose solution during sterilization (Cycles 1-4) and storage; details: for concentration, T1M40° C. / concentration, T3M40° C. / concentration, Cycle 3 T0 / concentration, T6M40° C. / concentration, Cycle 4 T0 / concentration, Unsterilized T0 / concentration, T6M40° C., sum of cyanocobalamin and hydroxocobalamin: 35% glucose solution; for concentration, T1M40° C.: 1 month 40° C.; for concentration, T3M40° C.: 3 months 40° C.; for concentration, Cycle 3 T0: Cycle 3 (water spray sterilization, Co = 25 minutes); for concentration, Cycle 3 T0 / concentration, Cycle 4 T0: after sterilization; for concentration, T6M40° C. / concentration, T6M40° C., sum of cyanocobalamin and hydroxocobalamin: 6 months 40° C.; for concentration, Cycle 4 T0: Cycle 4 (water spray sterilization, Co = 19 minutes); for concentration, Unsterilized T0: before sterilization
Experimental: (§1) For testing the stability of vitamin B12 in formulation as they are typically used in parenteral nutrition, a 35% glucose solution, a 14.2% amino acid formulation such as found, for example, in Olimel N9E (Baxter Int. Inc.), and a 20% lipid emulsion such as found in Clinoleic 20% (Baxter Int. Inc.) were supplemented with different vitamins combinations which always included vitamin B12. KC1 was added into the glucose solution to understand if it has an effect on the stability of vitamin B12. Vitamin B12 was introduced as […]. Ascorbyl palmitate was added to the lipid emulsion formulation as a stabilizing agent due to its antioxidant properties. In addition, two separate micellar solutions (“Vit A” and “Vit B”, see Table 5) comprising certain vitamins to be assessed with regard to degradation (B3, B6, B8, B9, B12, C) but formulated with different excipients as micellization agents were tested for vitamin B12 stability. Vit A consisted of a solution of mixed micelles with ascorbyl palmitate as a potential stability enhancer. Vit B was formulated with a mix of polysorbates, PEG and sorbitol to form micelles. The micellar solutions were prepared by mixing, under high speed, a solution composed of glycocholic acid and lecithins dissolved in water. In case of Vit B, the glycocholic acid and lecithin were replaced by PEG and polysorbate. All formulations were provided in standard flexible containers and overpouched with an aluminum overpouch for subsequent sterilization. For an overview over formulations and conditions see Table 5.
(§2) All samples were submitted to two different sterilization technologies. Steam sterilization targeting a Fo=8 min was. used for large volumes (400/800 ml, Cycle 2) and for small volumes (25/50 ml, Cycle 1) as lined out in Table 5 above. The same samples were sterilized by water spray sterilization with a serial tower continuous sterilization equipment with two different exposure times (Cycles 3 (25 min.) and 4 (19 min.)).
(§3) The vitamin recovery was then compared between the different sterilization cycles and formulations to understand the impact of the formulation and the sterilization technology used on their respective short- and long-term stability. Therefore, after sterilization, the samples were stored at 40° C./[…] for 6 months to evaluate the recovery of vitamin B12 at TIM, T3M and T6M. Besides, backup samples were stored at 5° C. Finally, some samples were also stored at 25° C./40% RH to provide for real time stability data.

[2] = Studies of cyanocobalamin in lipid emulsions (summary statement)
Experimental: (storage for 3 months at 40° C.), even though hydroxocobalamin seems to remain relatively stable for about 6 months at 40° C.

[3] = Stability of vitamin B12 in 20% lipid emulsion with ascorbyl palmitate during sterilization (Cycles 1-4) and storage; details: for concentration, T1M40° C.: 1 month 40° C.; for concentration, T6M40° C., sum of cyanocobalamin and hydroxocobalamin: 6 months 40° C.
Experimental: as §1, §2, §3
Vitamin B12 was also considerably degraded in the lipid emulsion (Tables 8 through 11). […] It should thus be avoided in formulations according to the invention.

[4] = Cycle 1 (steam sterilization), 25 ml
[5] = Cycle 2 (steam sterilization), 800 ml

Row | concentration, T1M40° C. [1, 4] [ng/mL] | concentration, T3M40° C. [1, 4] [ng/mL] | concentration, T1M40° C. [1, 5] [ng/mL] | concentration, T3M40° C. [1, 5] [ng/mL] | concentration, Cycle 3 T0 [1] [ng/mL] | concentration, T3M40° C. ([1]; Cycle 3 (water spray)) [ng/mL] | concentration, T6M40° C. ([1]; Cycle 3 (water spray)) [ng/mL] | concentration, Cycle 4 T0 ([1]; 800 ml) [ng/mL] | concentration, T3M40° C. ([1]; Cycle 4 (water spray)) [ng/mL] | concentration, T6M40° C. ([1]; Cycle 4 (water spray)) [ng/mL] | concentration, Unsterilized T0 ([1]; Table 6A (25 ml)) [ng/mL] | concentration, Unsterilized T0 ([1]; Table 6B (800 ml)) [ng/mL] | concentration, Unsterilized T0 ([1]; Table 7A) [ng/mL] | concentration, Unsterilized T0 ([1]; Table 7B, 800 ml) [ng/mL] | Molecule | further results
1 | 6400 | 6500 | 5930 | 6000 | 6230 | 6100 | 6040 | 6270 | 5900 | 6030 | 6400 | 6400 | 6610 | 6610 | Cc1ncc(CO)c(CO)c1O [Batch B6, Pyridoxine] | 
2 | 49300 | 50200 | 50600 | 51200 | 50500 | 50300 | 48270 | 50400 | 51000 | 49350 | 51100 | 51100 | 52800 | 52800 | O=C(O)c1cccnc1 [Batch B3, niacin] | 
3 | 4.5 | 3.7 | 4 | 3.6 | 5.1 | 4.1 |  | 5.2 | 4.1 |  | 6.2 | 6.2 | 6 | 6 | cobalamin [Batch B12] | concentration, Unsterilized T0 ([3]; 20% lipid emulsion with ascorbyl palmitate, Table 8, before sterilization): 15 ng/mL; concentration, T1M40° C. ([3]; 20% lipid emulsion, Cycle 1 (steam sterilization)): 4 ng/mL; concentration, T3M40° C. ([3]; 20% lipid emulsion, Cycle 1 (steam sterilization), 3 months 40° C.): <LOD; concentration, T1M40° C. ([3]; 20% lipid emulsion, Cycle 2 (steam sterilization)): <LOD; concentration, Cycle 2 T0 ([3]; 20% lipid emulsion, Cycle 2 (steam sterilization), after sterilization): 5 ng/mL; concentration, Cycle 3 T0 ([3]; 20% lipid emulsion, Cycle 3 (water spray sterilization), after sterilization): 5 ng/mL; concentration, T6M40° C., sum of cyanocobalamin and hydroxocobalamin ([3]; 20% lipid emulsion, Cycle 3 (water spray)): 3.7 ng/mL; concentration, Unsterilized T0 ([3]; 20% lipid emulsion, Table 10, before sterilization): 14 ng/mL; concentration, Unsterilized T0 ([3]; 20% lipid emulsion, Table 11, before sterilization): 14 ng/mL; concentration, T0 after sterilization ([3]; 20% lipid emulsion, Table 11, head 'Cycle 3', water spray sterilization with serial tower continuous equipment): 6 ng/mL; concentration, T6M40° C., sum of cyanocobalamin and hydroxocobalamin ([3]; 20% lipid emulsion, Table 11, head 'Cycle 3', water spray): 5.5 ng/mL; concentration, T6M40° C., sum of cyanocobalamin and hydroxocobalamin ([1]; Cycle 3 (water spray)): 0.0023* mg/L; concentration, T6M40° C., sum of cyanocobalamin and hydroxocobalamin ([1]; Cycle 4 (water spray)): 0.0031* mg/L

The next lines start with the molecule.

Row | Molecule | concentration, T1M40° C. [1, 4] [ng/mL] | concentration, T3M40° C. [1, 4] [ng/mL] | concentration, T1M40° C. [1, 5] [ng/mL] | concentration, T3M40° C. [1, 5] [ng/mL] | concentration, Cycle 3 T0 [1] [ng/mL] | concentration, T3M40° C. ([1]; Cycle 3 (water spray)) [ng/mL] | concentration, T6M40° C. ([1]; Cycle 3 (water spray)) [ng/mL] | concentration, Cycle 4 T0 ([1]; 800 ml) [ng/mL] | concentration, T3M40° C. ([1]; Cycle 4 (water spray)) [ng/mL] | concentration, T6M40° C. ([1]; Cycle 4 (water spray)) [ng/mL] | concentration, Unsterilized T0 ([1]; Table 6A (25 ml)) [ng/mL] | concentration, Unsterilized T0 ([1]; Table 6B (800 ml)) [ng/mL] | concentration, Unsterilized T0 ([1]; Table 7A) [ng/mL] | concentration, Unsterilized T0 ([1]; Table 7B, 800 ml) [ng/mL] | further results
4 | cyanocobalamin |  |  |  |  |  |  |  |  |  |  |  |  |  |  | cyanocobalamin detection after 6 months ([1]; glucose solution, Cycles 1 and 2 (steam sterilization), FIG. 2): no cyanocobalamin can be detected; cyanocobalamin detection ([2]; lipid emulsions irrespective of oil source, pH or stabilizing agent, T3M40° C.): no more cyanocobalamin can be detected
5 | C/C1=C2/[N-][C@H]([C@H](CC(N)=O)[C@@]2(C)CCC(=O)NC[C@@H](C)OP(=O)([O-])O[C@H]2[C@@H](O)[C@@H](n3cnc4cc(C)c(C)cc43)O[C@@H]2CO)[C@]2(C)N=C(/C(C)=C3N=C(/C=C4N=C1[C@@H](CCC(N)=O)C\4(C)C)[C@@H](CCC(N)=O)[C@]\3(C)CC(N)=O)[C@@H](CCC(N)=O)[C@]2(C)CC(N)=O.[Co+3].[OH-] [hydroxocobalamin] |  |  |  |  |  |  |  |  |  |  |  |  |  |  | time hydroxocobalamin remains relatively stable ([2]; lipid emulsions, 40° C.): about 6 months

Source: patent US20260232717A1, “PARENTERAL NUTRITION FORMULATION COMPRISING VITAMIN B12” (BAXTER INTERNATIONAL INC., priority 2020, published 2026)
